The text below walks through data of US4592906A, “Ultra-violet absorbing compounds and compositions containing said compounds” (Graesser Laboratories, Ltd., priority 1984, dated 1986).

In brackets after ≈: the same amount, converted by molar mass.

Common to all, as to assay type: physicochemical
A short description of data set [1]: Ultra-violet absorption (absorptivity, absorption maximum). The note with it: for Absorptivity: c in g/l, path length b in centimeters. The protocol: The absorptivity of the following p-dimethylaminocinnamate was measured using the formula [formula] wherein c is concentration in g/l and b is path length in centimeters: […]
The nature of data set [2]: Solubility in liquid paraffin (mineral oil) at 23. The note with it: organic solvent or mixture. From the text:
In particular, their solubilities in liquid paraffin are as follows:
Ester paraffin at 23 (% wt/vol)

Data set [3] is described as follows: Physical state at room temperature.
Data set [4] can be described thus: Miscibility with liquid paraffin (mineral oil), methanol and water.

Take `CCOC(=O)C=Cc1ccc(N(C)C)cc1` [(2), ethyl p-dimethylaminocinnamate, reference compound]: in data set [1], the Absorptivity came to 125 L/g/cm.
On to `CC1CC(OC(=O)C=Cc2ccc(N(C)C)cc2)CC(C)(C)C1` (centres unmarked) [(e), 3,3,5-trimethylcyclohexyl p-dimethylaminocinnamate], for which the solubility in data set [2] came out at 12 mg/mL (≈ 38 mM).
As for `CCCCCCCCOC(=O)C=Cc1ccc(N(C)C)cc1` [(c), 1-octyl p-dimethylaminocinnamate, reference compound], the solubility in data set [2] worked out at 25 mg/mL (≈ 82.4 mM). Further, the Absorptivity in data set [1] turned out to be 89 L/g/cm.
As to `CCCCCCCCCCOC(=O)C=Cc1ccc(N(C)C)cc1` [(f), 1-decyl p-dimethylaminocinnamate], in data set [2], the solubility came to 21 mg/mL (≈ 63.3 mM).
For the compound `CCCCCCC(C)OC(=O)C=Cc1ccc(N(C)C)cc1` (centres unmarked) [Example 2-Octyl, 2-octyl 4-dimethylaminocinnamate], in data set [3], the “physical state at room temperature” value is “liquid at room temperature”. In addition, in data set [4], the “miscibility with liquid paraffin (mineral oil)” value is reported as “completely miscible” and the miscibility with methanol result is on record as “completely miscible”. This compound displayed an Absorptivity in data set [1] of 95 L/g/cm.
As to `CCCCCCCOC(=O)C=Cc1ccc(N(C)C)cc1` [(b), 1-heptyl p-dimethylaminocinnamate], in data set [2], the solubility came out at 21 mg/mL (≈ 72.6 mM).
Same read-out and setting: then `CC(CCOC(=O)C=Cc1ccc(N(C)C)cc1)CC(C)(C)C` (centres unmarked) [(d), 3,5,5-trimethylhexyl p-dimethylaminocinnamate], with 29 mg/mL (≈ 91.3 mM); and `CC(C)CCOC(=O)C=Cc1ccc(N(C)C)cc1` [(a), 3-methylbutyl-p-dimethylaminocinnamate], with 24 mg/mL (≈ 91.8 mM).
As for `CCCCC(CC)COC(=O)C=Cc1ccc(N(C)C)cc1` (centres unmarked) [Example 2-Ethylhexyl, 2-Ethylhexyl 4-dimethylaminocinnamate], the “physical state at room temperature” value in data set [3] is on record as “liquid at room temperature”. Also, in data set [4], the “miscibility with liquid paraffin (mineral oil)” value is given as “completely miscible” and the miscibility with methanol entry is recorded as “completely miscible”. Besides, the λmax in data set [1] (Example 1, prepared product) was found to be 360 nm. This compound returned an Absorptivity in data set [1] of 101 L/g/cm.

As usually defined, the solubility is how much of the substance goes into solution per volume.
